# Source: US9051320B1, “Methods for the treatment of metabolic disorders by a selective small molecule autotaxin inhibitor” (PharmAkea, Inc., priority 2014, dated 2015)
# Structures can show the parent of a compound that is named as a salt. Where two headings read alike, the source gives them in different places.
# Experiments:
# human autotaxin (ATX) = biological target: T1, human autotaxin (ATX) (Homo sapiens, UniProt Q13822); test: Human autotaxin assay (choline release from LPC, Hep3B conditioned media); assay type: biochemical; conditions: LPC 14:0 100 uM
# T1 construct: ATX activity is assayed in concentrated conditioned media from Hep3B human hepatocellular carcinoma cells; endogenous in cells; host or cells: Hep3B human hepatocellular carcinoma cells (20-fold concentrated conditioned medium)
# Method: ATX activity is assayed in concentrated conditioned media from Hep3B human hepatocellular carcinoma cells by measuring the amount of choline released from the substrate, lysophosphatidylcholine (LPC) as it is cleaved to LPA. Conditioned media is collected from confluent Hep3B cells and concentrated 20-fold using Centriprep-30 filter devices (Millipore).
# [1] = tested on: mice fed a high fat diet (HFD); test: Glucose tolerance test in mice fed a high fat diet; assay type: in vivo, C57B16/J male mice; conditions: for total blood glucose AUC: after i.p. 1 g/kg glucose; for baseline glucose (fasting blood glucose): sodium salt
# Method: C57B16/J male mice were fed a normal diet until 9-10 weeks of age. […] For determination of blood glucose, mice were administered test compound orally in 0.5% methocel once or twice daily for several days prior to the glucose challenge. Compounds were administered as a sodium salt. On the day of the glucose tolerance test (GTT) mice were fasted for 6-8 hours and a last dose of test compound administered orally 1-3 hours before the intraperitoneal (i.p.) injection of 1 g/kg D-glucose (Sigma). Blood from the tail vein was sampled before the glucose load (baseline glucose) and every 15-30 min over the next 120 min after the glucose challenge to monitor blood glucose concentration. Blood glucose was quantified using a glucose meter (Accu-Chek, Roche Diagnostics or AlphaTRAK, Abbott Animal Health) and plotted vs. time. Total blood glucose area under the curve (AUC) after the i.p. glucose challenge was calculated from the time plot using GraphPad Prism6.
# [2] = tested on: mice fed a normal diet or a high fat diet; conditions: cited from earlier work; for glucose tolerance: injection
# [3] = 30 mg/kg oral twice daily for two days and once on the day of sampling
# [4] = 30 mg/kg oral twice daily for two days prior to sampling and once on the day of sampling
# [5] = chronic treatment, mice fed a high fat diet
smiles,measurement,setting,value
"CCn1cc(-n2c(C3CC3)c(Sc3cccc(C(=O)O)n3)c3ccc(Cl)c(F)c32)cn1 [Compound D, 6-((6-chloro-2-cyclopropyl-1-(1-ethyl-1H-pyrazol-4-yl)-7-fluoro-1H-indol-3-yl)thio)picolinic acid sodium salt]",IC50,human autotaxin (ATX),< 500 nM
same,total blood glucose AUC,[1]; [3],decrease
same,baseline glucose (fasting blood glucose),[1]; [4],decrease
"Cc1c(Sc2cccc(C(=O)O)c2F)c2ccc(Cl)c(F)c2n1CC(=O)N1CCC(O)(C(F)(F)F)C1 (single isomer, unassigned) [Compound E]",baseline glucose (fasting blood glucose),[1]; 30 mg/kg oral once daily for 5 days prior to sampling,decrease
"O=C(O)CCN1C(=O)[C@@H]2Cc3c(n(Cc4ccc(F)cc4)c4ccccc34)CN2C1=O [Compound A, (S)-3-(6-(4-fluorobenzyl)-1,3-dioxo-5,6,11,11a-tetrahydro-1H-imidazo [1′,5′:1,6]pyrido[3,4-b]indol-2(3H)-yl)propanoic acid]",total blood glucose AUC,[1]; [3],decrease
same,baseline glucose (fasting blood glucose),[1]; [4],decrease
"CCCn1cc(-n2c(Cl)c(Sc3cccc(C(=O)O)c3F)c3ccc(Cl)c(F)c32)cn1 [Compound C, 3-((2,6-dichloro-7-fluoro-1-(1-propyl-1H-pyrazol-4-yl)-1H-indol-3-yl)thio)-2-fluorobenzoic acid]",total blood glucose AUC,[1]; 15 mg/kg oral twice daily for two days and once on the day of sampling,decrease
same,baseline glucose (fasting blood glucose),[1]; 15 mg/kg oral twice daily for two days prior to sampling and once on the day of sampling,decrease
Cc1noc(-c2ccc(CSCCC(=O)O)cc2)c1NC(=O)OC(C)c1ccccc1Cl (centres unmarked) [Ki16425],capacity of a muscle to oxidize glucose,[2]; [5],increases
same,fasting insulin levels,[2]; [5],improves
same,insulin sensitivity,[2]; [5],improves
same,liver glycogen storage,[2]; [5],increases
same,glucose tolerance,[2]; mice fed a high fat diet,does significantly improve
same,glucose tolerance,[2]; mice fed a normal diet,does not significantly improve
